Patent publication US9018171B2, “Uses of an immunomodulatory protein (GMI) from Ganoderma microsporum” (Mycomagic Biotechnology Co., Ltd., priority 2010, dated 2015)

Experiments:
EGFR = assay: Western blotting, EGF-induced phosphorylation; format: cell-based, human; settings: A549 cells, pretreated 8 h, EGF 10 minutes
Description: A549 cells (5×10^5 cells/60 mm) were pretreated with various concentrations of GMI (4, 16 μg/ml) or AG1478 (EGFR inhibitors) for 8 hours prior to incubation for 10 minutes with EGF (as indicated). Cell lysates were subject to immunoblotting with phospho-specific EGFR (Y1068) (A and B), anti-phospho-AKT (A), anti-AKT (A), anti-phospho-GSK3β (A) or anti-phospho-STAT3 antibodies (B). Protein loading was determined by Western blotting against β-actin (A and B).
Total cell lysates were prepared in RIPA buffer (100 μl in 60 mm in dish). Fifty μg of lysate were loaded onto an 8% polyacrylamide gel and analyzed by SDS gel electrophoresis. After transfer to PVDF (Amersham), blots were blocked with 5% skim milk in TBS (10 mM Tris-CL pH7.5, 150 mM NaCl) containing 0.2% Tween-20. Blots were probed with antibodies (at their recommended dilutions) in 5% skim milk in TBS overnight at 4° C. Following detection with the appropriate horseradish-peroxidase conjugated secondary antibody (Cell Signaling), blots were developed by enhanced chemiluminescence according to the manufacturer's directions (Perkin Elmer Life Sciences). All experiments were performed in duplicate.
To assess whether GMI mediates and/or inhibits phosphorylation of Akt and Stat3, the invention investigated the effect of GMI on the phosphorylation status of Akt and Stat3 in A549 cells treated with various concentrations of GMI for 8 h.

A549/V16 = assay: MTT assay, drug sensitivity; format: cell-based, human; settings: for value in parentheses after IC50 (ratio to parental A549): A549/V16; for IC50: Homo sapiens, A549/V16, 48 h, MTT
Description: (§1) A549 cell line and resistant A549 cell sublines (A549/D16, A549/D32 and A549/V16) (5000 cells/well of 96-well plate) were treated with increased doses concentrations (μM) of GMI from Ganoderma microsporum, docetaxel, vincristine and doxorubicin for 48 h, respectively. Cell viability was measured by MTT assay and the results are presented as the calculated cell growth inhibitory ratio. Experiments were repeated three times.

A549/D16 = assay: MTT assay, drug sensitivity; format: cell-based, human; settings: for value in parentheses after IC50 (ratio to parental A549): A549/D16; for IC50: Homo sapiens, A549/D16, 48 h, MTT
Description: as §1

A549/D32 = assay: MTT assay, drug sensitivity; format: cell-based, human; settings: for value in parentheses after IC50 (ratio to parental A549): A549/D32; for IC50: Homo sapiens, A549/D32, 48 h, MTT
Description: as §1

A549 = assay: MTT assay, drug sensitivity; format: cell-based, human; settings: for IC50: Homo sapiens, A549, 48 h, MTT
Description: as §1

CaLu-1 cells = assay: MTT assay, cisplatin and GMI co-treatment; format: cell-based; settings: CaLu-1, 48 h, read-out: cisplatin alone concentration needed to achieve about 50% cell viability
Description: CaLu-1 cells were co-treated with various concentrations of cisplatin (0, 2.5, 5, 10, 20 μM) and GMI from Ganoderma microsporum (0, 4, 8 and 16 μg/mL) for 48 h followed by MTT assay to estimate cell viability.
MTT assay was used to determine the effect of GMI and cisplatin on the proliferation of Calu-1 cells. In metabolically active cells, MTT (Thiazolyl Blue Tetrazolium Bromide) (Sigma) was reduced by dehydrogenase enzyme into an formazan product. Absorbance was measured directly at 570 nm from 96-well assay plates after adding 100 μl DMSO. The quantity of formazan was considered to be directly proportional to the number of viable cells in the culture.
Briefly, the cells (5×10^3) were incubated on 96-well plates containing 200 μl of growth medium. After 24 h incubation, the medium was carefully removed and 100 μl of fresh medium containing various concentrations of GMI and cisplatin were added to the wells. The cells were treated with GMI and cisplatin continuously for 48 h with 0, 4, 8, 16 μg/ml for GMI and with 0, 2.5, 5 and 10 μM for cisplatin. […] The absorbance was analyzed on a VERSAmax microplate reader at 570 nm. Absorbance values were presented as the mean±SE of 3 replicates for each treatment. […] Absorbance of untreated cells was considered 100%. […]

IC50 (A549/V16) [nM]	IC50 (A549/D16) [nM]	IC50 (A549/D32) [nM]	IC50 (A549) [nM]	Structure (SMILES)	EGF-induced activation (phosphorylation) of EGFR (EGFR)	value in parentheses after IC50 (ratio to parental A549) (A549/V16)	value in parentheses after IC50 (ratio to parental A549) (A549/D16)	value in parentheses after IC50 (ratio to parental A549) (A549/D32)	value in parentheses after IC50 (ratio to parental A549) (A549)	IC50 (CaLu-1 cells) [µM]
780 ± 51.3	730 ± 56.6	2040 ± 955	6.4 ± 0.1	CC(=O)O[C@@]12CO[C@@H]1C[C@H](O)[C@@]1(C)C(=O)[C@H](O)C3=C(C)[C@@H](OC(=O)[C@H](O)[C@@H](NC(=O)OC(C)(C)C)c4ccccc4)C[C@@](O)([C@@H](OC(=O)c4ccccc4)[C@H]21)C3(C)C [Docetaxel]	–	121.9	114.1	318.0	1.0	–
1530 ± 80.8	3420 ± 152	7690 ± 148	223 ± 23.2	COc1cccc2c1C(=O)c1c(O)c3c(c(O)c1C2=O)C[C@@](O)(C(=O)CO)C[C@@H]3O[C@H]1C[C@H](N)[C@H](O)[C@H](C)O1 [Doxorubicin]	–	6.9	15.4	34.6	1.0	–

More lines, now with the values behind:

Structure (SMILES)	IC50 (A549/V16) [nM]	IC50 (A549/D16) [nM]	IC50 (A549/D32) [nM]	IC50 (A549) [nM]	EGF-induced activation (phosphorylation) of EGFR (EGFR)	value in parentheses after IC50 (ratio to parental A549) (A549/V16)	value in parentheses after IC50 (ratio to parental A549) (A549/D16)	value in parentheses after IC50 (ratio to parental A549) (A549/D32)	value in parentheses after IC50 (ratio to parental A549) (A549)	IC50 (CaLu-1 cells) [µM]
COc1cc2ncnc(Nc3cccc(Cl)c3)c2cc1OC [AG1478, reference compound]	–	–	–	–	able to inhibit EGFR phosphorylation	–	–	–	–	–
CC[C@]1(O)C[C@H]2CN(CCc3c([nH]c4ccccc34)[C@@](C(=O)OC)(c3cc4c(cc3OC)N(C=O)[C@H]3[C@@](O)(C(=O)OC)[C@H](OC(C)=O)[C@]5(CC)C=CCN6CC[C@]43[C@@H]65)C2)C1 [Vincristine]	760 ± 92.4	770 ± 56.6	730 ± 28.3	14.9 ± 0.1	–	51.2	51.9	49.2	1.0	–
N.N.[Cl][Pt][Cl] [cisplatin]	–	–	–	–	–	–	–	–	–	~10
